Assay results as given in ChEMBL document CHEMBL3272080, “Analogues of luteinizing hormone releasing factor modified at positions 2, 6, and 10” (J Med Chem, 1976).
*1 amine or outer side, *2 acyl side, *3 side chain or, on linkers, in order; H or OH if unused. Where a SMILES comes first, the peptide text is derived from it. [ ]: non-standard residue; d: D form. X1 = CCCCCCCCCCCCNCCC[C@@H](N[*:1])C(=O)[*:2]; pGlu = O=C1CC[C@@H](C(=O)O)N1

Columns and labels:
[1] = Retardation factor in 1-butanol-pyridine-0.1% acetic acid at 5:3:11 ratio by TLC; type: physicochemical
[2] = Retardation factor in 1-butanol-2-propanol-1 N ammonium hydroxide-ethyl acetate at 1:1:2.5:1 ratio by TLC; type: physicochemical
[3] = Retardation factor in 2-butanol-0.1 N acetic acid at 1:1 ratio by TLC; type: physicochemical
[4] = Retardation factor in 1-butanol-ethyl acetate-acetic acid-water at 1:1:1:1 ratio by TLC; type: physicochemical; conditions: buffer
[5] = Retardation factor in 2-butanol-water at 1:1 ratio by TLC; type: physicochemical; conditions: buffer
[6] = Retardation factor in ethyl acetate-pyridine-acetic acid-water at 5:5:1:3 ratio by TLC; type: physicochemical; conditions: buffer
[7] = Retardation factor in 2-butanol-0.1 N ammonium hydroxide at 1:1 ratio by TLC; type: physicochemical
[8] = Inhibition of LRF-induced luteinizing hormone secretion in rat anterior pituitary cells relative to [des-His2,D-Ala6]-LRF; type: functional, Pituitary gland cell
[9] = Retardation factor in 1-butanol-acetic acid-water at 4:1:5 ratio by TLC; type: physicochemical; conditions: buffer
[10] = Increase in luteinizing hormone secretion in rat anterior pituitary cells relative to luteinizing hormone releasing factor; type: functional, Pituitary gland cell

Row | SMILES | Rf [1] | Rf [2] | Rf [3] | Rf [4] | Rf [5] | Rf [6] | Rf [7] | Rf [9] | fold change (FC) [8] | fold change (FC) [10]
1 | CCCCCCCCCCCCNCCC[C@@H](NC(=O)[C@H](Cc1ccc(O)cc1)NC(=O)[C@H](CO)NC(=O)[C@H](Cc1c[nH]c2ccccc12)NC(=O)[C@@H]1CCC(=O)N1)C(=O)N[C@@H](CC(C)C)C(=O)N[C@@H](CCCNC(=N)N)C(=O)N1CCC[C@H]1C(=O)NCC(N)=O ([pGlu]WSY[X1]LRPG-NH2) | 0.67 | 0.44 | 0.47 | 0.78 | 0.45 | 0.48 | 0.43 | 0.53 | 278 | 
2 | CCCCCCCCCCCCNCCCC[C@@H](NC(=O)[C@H](Cc1ccc(O)cc1)NC(=O)[C@H](CO)NC(=O)[C@H](Cc1c[nH]c2ccccc12)NC(=O)[C@H](Cc1cnc[nH]1)NC(=O)[C@@H]1CCC(=O)N1)C(=O)N[C@@H](CC(C)C)C(=O)N[C@@H](CCCNC(=N)N)C(=O)N1CCC[C@H]1C(=O)NCC(N)=O | 0.56 | 0.44 | 0.38 | 0.74 | 0.37 | 0.35 | 0.37 | 0.4 |  | 164
3 | CCCCCCCCCCCCNCCC[C@@H](NC(=O)[C@H](Cc1ccc(O)cc1)NC(=O)[C@H](CO)NC(=O)[C@H](Cc1c[nH]c2ccccc12)NC(=O)[C@H](Cc1cnc[nH]1)NC(=O)[C@@H]1CCC(=O)N1)C(=O)N[C@@H](CC(C)C)C(=O)N[C@@H](CCCNC(=N)N)C(=O)N1CCC[C@H]1C(=O)NCC(N)=O | 0.59 | 0.43 | 0.39 | 0.72 | 0.38 | 0.34 | 0.36 | 0.4 |  | 290
4 | CCCCCCCCCCCCNCCC[C@@H](NC(=O)[C@H](Cc1ccc(O)cc1)NC(=O)[C@H](CO)NC(=O)[C@H](Cc1c[nH]c2ccccc12)NC(=O)[C@H](Cc1cnc[nH]1)NC(=O)[C@@H]1CCC(=O)N1)C(=O)N[C@@H](CC(C)C)C(=O)N[C@@H](CCCNC(=N)N)C(=O)N1CCC[C@H]1C(=O)NCC | 0.62 | 0.46 | 0.43 | 0.72 | 0.4 | 0.38 | 0.37 | 0.45 |  | 490
5 | CCNC(=O)[C@@H]1CCCN1C(=O)[C@H](CCCNC(=N)N)NC(=O)[C@H](CC(C)C)NC(=O)[C@@H](CCCN)NC(=O)[C@H](Cc1ccc(O)cc1)NC(=O)[C@H](CO)NC(=O)[C@H](Cc1c[nH]c2ccccc12)NC(=O)[C@H](Cc1cnc[nH]1)NC(=O)[C@@H]1CCC(=O)N1 | 0.47 | 0.34 | 0.29 | 0.65 |  | 0.69 |  | 0.26 |  | 682
6 | CCCCCCCCCCCCNCCCC[C@@H](NC(=O)[C@H](Cc1ccc(O)cc1)NC(=O)[C@H](CO)NC(=O)[C@H](Cc1c[nH]c2ccccc12)NC(=O)[C@H](Cc1cnc[nH]1)NC(=O)[C@@H]1CCC(=O)N1)C(=O)N[C@@H](CC(C)C)C(=O)N[C@@H](CCCNC(=N)N)C(=O)N1CCC[C@H]1C(=O)NCC | 0.61 | 0.47 | 0.43 | 0.72 | 0.39 | 0.4 | 0.38 | 0.42 |  | 1038
7 | CCCCCCCCCCCCNCCCC[C@@H](NC(=O)[C@H](Cc1ccc(O)cc1)NC(=O)[C@H](CO)NC(=O)[C@H](Cc1c[nH]c2ccccc12)NC(=O)[C@@H]1CCC(=O)N1)C(=O)N[C@@H](CC(C)C)C(=O)N[C@@H](CCCNC(=N)N)C(=O)N1CCC[C@H]1C(=O)NCC(N)=O | 0.66 | 0.44 | 0.46 | 0.78 | 0.44 | 0.48 | 0.43 | 0.52 | 284 | 
8 | CCCCCCCCCCCCNCCC[C@@H](NC(=O)[C@H](Cc1ccc(O)cc1)NC(=O)[C@H](CO)NC(=O)[C@H](Cc1c[nH]c2ccccc12)NC(=O)[C@@H]1CCC(=O)N1)C(=O)N[C@@H](CC(C)C)C(=O)N[C@@H](CCCNC(=N)N)C(=O)N1CCC[C@H]1C(=O)NCC ([pGlu]WSY[X1]LRP-NHEt) | 0.71 | 0.49 | 0.51 | 0.84 | 0.47 | 0.55 | 0.46 | 0.64 | 153 | 
9 | CCNC(=O)[C@@H]1CCCN1C(=O)[C@H](CCCNC(=N)N)NC(=O)[C@H](CC(C)C)NC(=O)[C@@H](CCCCN)NC(=O)[C@H](Cc1ccc(O)cc1)NC(=O)[C@H](CO)NC(=O)[C@H](Cc1c[nH]c2ccccc12)NC(=O)[C@H](Cc1cnc[nH]1)NC(=O)[C@@H]1CCC(=O)N1 | 0.53 | 0.31 | 0.27 | 0.66 |  | 0.63 |  | 0.4 |  | 1726
10 | CC(=O)NCCCC[C@@H](NC(=O)[C@H](Cc1ccc(O)cc1)NC(=O)[C@H](CO)NC(=O)[C@H](Cc1c[nH]c2ccccc12)NC(=O)[C@H](Cc1cnc[nH]1)NC(=O)[C@@H]1CCC(=O)N1)C(=O)N[C@@H](CC(C)C)C(=O)N[C@@H](CCCNC(=N)N)C(=O)N1CCC[C@H]1C(=O)NCC(N)=O | 0.56 | 0.43 | 0.34 | 0.73 | 0.34 | 0.69 | 0.33 | 0.39 |  | 274
11 | CCCCCCCCCCCCNCCCC[C@@H](NC(=O)[C@H](Cc1ccc(O)cc1)NC(=O)[C@H](CO)NC(=O)[C@H](Cc1c[nH]c2ccccc12)NC(=O)[C@@H]1CCC(=O)N1)C(=O)N[C@@H](CC(C)C)C(=O)N[C@@H](CCCNC(=N)N)C(=O)N1CCC[C@H]1C(=O)NCC | 0.73 | 0.47 | 0.52 | 0.83 | 0.46 | 0.53 | 0.45 | 0.63 | 276 | 
12 | CC(=O)NCCC[C@@H](NC(=O)[C@H](Cc1ccc(O)cc1)NC(=O)[C@H](CO)NC(=O)[C@H](Cc1c[nH]c2ccccc12)NC(=O)[C@H](Cc1cnc[nH]1)NC(=O)[C@@H]1CCC(=O)N1)C(=O)N[C@@H](CC(C)C)C(=O)N[C@@H](CCCNC(=N)N)C(=O)N1CCC[C@H]1C(=O)NCC(N)=O | 0.57 | 0.43 | 0.34 | 0.7 | 0.33 | 0.66 | 0.34 | 0.38 |  | 101

Continued, in another order:

Row | Rf [1] | Rf [2] | Rf [3] | Rf [4] | Rf [5] | Rf [6] | Rf [7] | Rf [9] | SMILES | fold change (FC) [8] | fold change (FC) [10]
13 | 0.47 | 0.26 | 0.33 | 0.73 | 0.25 | 0.71 |  | 0.35 | CC(C)C[C@H](NC(=O)[C@@H](CCCCN)NC(=O)[C@H](Cc1ccc(O)cc1)NC(=O)[C@H](CO)NC(=O)[C@H](Cc1c[nH]c2ccccc12)NC(=O)[C@@H]1CCC(=O)N1)C(=O)N[C@@H](CCCNC(=N)N)C(=O)N1CCC[C@H]1C(=O)NCC(N)=O ([pGlu]WSY[dK]LRPG-NH2) | 123 | 
14 | 0.42 | 0.24 | 0.24 | 0.57 |  | 0.58 |  | 0.31 | CC(C)C[C@H](NC(=O)[C@@H](CCCCN)NC(=O)[C@H](Cc1ccc(O)cc1)NC(=O)[C@H](CO)NC(=O)[C@H](Cc1c[nH]c2ccccc12)NC(=O)[C@H](Cc1cnc[nH]1)NC(=O)[C@@H]1CCC(=O)N1)C(=O)N[C@@H](CCCNC(=N)N)C(=O)N1CCC[C@H]1C(=O)NCC(N)=O |  | 383
15 | 0.45 | 0.25 | 0.24 | 0.62 |  | 0.6 |  | 0.35 | CC(C)C[C@H](NC(=O)[C@@H](CCCN)NC(=O)[C@H](Cc1ccc(O)cc1)NC(=O)[C@H](CO)NC(=O)[C@H](Cc1c[nH]c2ccccc12)NC(=O)[C@H](Cc1cnc[nH]1)NC(=O)[C@@H]1CCC(=O)N1)C(=O)N[C@@H](CCCNC(=N)N)C(=O)N1CCC[C@H]1C(=O)NCC(N)=O |  | 182
16 | 0.59 | 0.37 | 0.35 | 0.76 | 0.31 | 0.71 |  | 0.49 | CCNC(=O)[C@@H]1CCCN1C(=O)[C@H](CCCNC(=N)N)NC(=O)[C@H](CC(C)C)NC(=O)[C@@H](CCCCN)NC(=O)[C@H](Cc1ccc(O)cc1)NC(=O)[C@H](CO)NC(=O)[C@H](Cc1c[nH]c2ccccc12)NC(=O)[C@@H]1CCC(=O)N1 | 97 | 
17 | 0.54 | 0.28 | 0.31 | 0.74 | 0.24 | 0.67 |  | 0.46 | CC(C)C[C@H](NC(=O)[C@@H](CCCN)NC(=O)[C@H](Cc1ccc(O)cc1)NC(=O)[C@H](CO)NC(=O)[C@H](Cc1c[nH]c2ccccc12)NC(=O)[C@@H]1CCC(=O)N1)C(=O)N[C@@H](CCCNC(=N)N)C(=O)N1CCC[C@H]1C(=O)NCC(N)=O | 134 | 
18 | 0.63 | 0.38 | 0.36 | 0.78 | 0.28 | 0.71 |  | 0.54 | CCNC(=O)[C@@H]1CCCN1C(=O)[C@H](CCCNC(=N)N)NC(=O)[C@H](CC(C)C)NC(=O)[C@@H](CCCN)NC(=O)[C@H](Cc1ccc(O)cc1)NC(=O)[C@H](CO)NC(=O)[C@H](Cc1c[nH]c2ccccc12)NC(=O)[C@@H]1CCC(=O)N1 | 105 | 
